Measurements from US10441550B2, “Nanofibrous materials as drug, protein, or genetic release vehicles” (BioSurfaces, Inc., priority 2005, dated 2019).

What was measured:
[1] = organism not given; cited from earlier work
[2] = system: Candida albicans; assay: Turbidity assay (broth macrodilution, NCCLS M27-A); assay type: cell-based; conditions: 40 micrograms Diflucan in solution; activity decreases as inoculum increases
Protocol: Candida albicans was purchased from ATCC.
A broth macrodilution assay was performed based on the NCCLS M27-A protocol. The stock fungal inoculum concentration was determined via backplating a set volume of the diluted fungus broth onto Trypticase Soy Agar plates. The number of colony forming units (cfu) grown per plate was then counted and extrapolated to determine the starting Candida concentration.
The stock fungus solution was then diluted to 10^6, 10^5 and 10^4 cfu/ml. After incubating the individual test segments in 2 ml of the fungus solutions for 24 hours at 30° C., the optical density of the broth solutions was measured at 492 nm.

O=C(O)c1cn(C2CC2)c2cc(N3CCNCC3)c(F)cc2c1=O [Cipro, Ciprofloxacin]
MIC50 [1]: 0.26 micrograms per ml

OC(Cn1cncn1)(Cn1cncn1)c1ccc(F)cc1F [Diflucan, Fluconazole]
antifungal activity [2]: excellent antifungal activity
